Results taken from patent US4068074A, “Cephalosporin derivatives having at the 3-position of the cephem ring a heterocyclic thiomethyl group with a carboxy or sulfo group and at the 7-position of the cephem ring an α-heterocylic acylaminophenyl-acetamide group” (priority 1974, dated 1978).
Values after ≈ are worked out from the molar mass of the structure shown. Where two headings read alike, the source gives them in different places.

Tests used:
[1] = system: Proteus vulgaris OXK US; assay: MIC against bacteria (Table I), strain (1); assay type: cell-based; conditions: (1) Proteus vulgaris OXK US; read-out: MIC
Excerpt: (§1) Now, for illustrating the excellent pharmacological effects of the compounds of this invention, the values of MIC (γ/ml.) of the compounds against various bacteria are shown in Table 1, in which the compounds of this invention used are shown by example numbers.
(1) Proteus vulgaris OXK US

[2] = system: Proteus vulgaris 0X 19US; assay: MIC against bacteria (Table I), strain (2); assay type: cell-based; conditions: 0X19US
Excerpt: as §1
(2) Proteus vulgaris 0X 19US

[3] = system: Proteus mirabilis IXM OM-19; assay: MIC against bacteria (Table I), strain (3); assay type: cell-based; conditions: IXMOM19; (3) Proteus mirabilis IXM OM-19; read-out: MIC
Excerpt: as §1
(3) Proteus mirabilis IXM OM-19

[4] = system: Pseudomonas aeruginosa ATCC 8689; assay: MIC against bacteria (Table I), strain (4); assay type: cell-based; conditions: ATCC8689; (4) Pseudomonas aeruginosa ATCC 8689; read-out: MIC
Excerpt: as §1
(4) Pseudomonas aeruginosa ATCC 8689

[5] = system: Pseudomonas aeruginosa 99 (Gentamycin resistant); assay: MIC against bacteria (Table I), strain (5); assay type: cell-based
Excerpt: as §1
(5) Pseudomonas aeruginosa 99 (Gentamycin resistant)

[6] = system: Psuedomonas ovalis IMA 1002; assay: MIC against bacteria (Table I), strain (6); assay type: cell-based; conditions: (6) Psuedomonas ovalis IMA 1002; read-out: MIC
Excerpt: as §1
(6) Psuedomonas ovalis IMA 1002

[7] = system: Escherichia coli kauffmann 0-1; assay: MIC against bacteria (Table I), strain (7); assay type: cell-based; conditions: Escherichia coli
Excerpt: as §1
(7) Escherichia coli kauffmann 0-1

[8] = system: Klebsiella pneumoniae ATCC 10031; assay: MIC against bacteria (Table I), strain (8); assay type: cell-based; conditions: ATCC10031
Excerpt: as §1
(8) Klebsiella pneumoniae ATCC 10031

[9] = system: Salmonella typhi H901 W; assay: MIC against bacteria (Table I), strain (9); assay type: cell-based; conditions: Salmonella enterica, TYPHI
Excerpt: as §1
(9) Salmonella typhi H901 W

[10] = system: Salmonella enteritidis; assay: MIC against bacteria (Table I), strain (10); assay type: cell-based; conditions: Salmonella enterica
Excerpt: as §1
(10) Salmonella enteritidis

[11] = system: Shigella flexneri 2a 1675; assay: MIC against bacteria (Table I), strain (11); assay type: cell-based; conditions: 2A1675; (11) Shigella flexneri 2a 1675; read-out: MIC
Excerpt: as §1

[12] = system: Shigella sonnei II 37148; assay: MIC against bacteria (Table I), strain (12); assay type: cell-based; conditions: II37148; (12) Shigella sonnei II 37148; read-out: MIC
Excerpt: as §1

[13] = system: Bacillus megatherium 10778; assay: MIC against bacteria (Table I), strain (13); assay type: cell-based; conditions: (13) Bacillus megatherium 10778; read-out: MIC
Excerpt: as §1

[14] = system: Bacillus subtilis ATCC 6633; assay: MIC against bacteria (Table I), strain (14); assay type: cell-based; conditions: ATCC6633; (14) Bacillus subtilis ATCC 6633; read-out: MIC
Excerpt: as §1
(14) Bacillus subtilis ATCC 6633

[15] = system: Micrococcus flavus ATCC 10240; assay: MIC against bacteria (Table I), strain (15); assay type: cell-based; conditions: ATCC10240
Excerpt: as §1
(15) Micrococcus flavus ATCC 10240

[16] = system: Staphylococcus aureus 209P; assay: MIC against bacteria (Table I), strain (16); assay type: cell-based
Excerpt: as §1
(16) Staphylococcus aureus 209P

[17] = system: Staphylococcus Shimanishi; assay: MIC against bacteria (Table I), strain (17); assay type: cell-based
Excerpt: as §1
(17) Staphylococcus Shimanishi

[18] = system: Staphylococcus Onuma; assay: MIC against bacteria (Table I), strain (18); assay type: cell-based
Excerpt: as §1
(18) Staphylococcus Onuma

[19] = Solubility of salts in water (Table 2); assay type: physicochemical; conditions: disodium salt, water, showing pH 7.4; read-out: Solubility: disodium salt dissolved in water in an amount of
Excerpt: An advantage of the compounds of this invention is that the salts, for example, sodium salts of these compounds are readily soluble in water at pH of living bodies, which makes them suitable for injections at high concentration. The solubility of these compounds are illustrated in Table 2 together with a control example.

[20] = system: β-lactamase isolated from Pseudomonas aeruginosa 21; assay: Resistance to β-lactamase: amount of unaltered test sample (Table 3); assay type: biochemical; conditions: initial concentration 100γ/ml
Excerpt: For example, the relation between the amount (γ/ml) of an unaltered test sample at an initial concentration of the sample 100γ/ml against β-lactamase isolated from Pseudomonas aeruginosa 21 at various dilutions of the enzyme were investigated.

[21] = Residual antibacterial activity after incubation with 90% plasma (Table 4); assay type: in vitro ADME, male Sprague-Dowley rat; conditions: 90% rat plasma; for remaining at 0.25 h / remaining at 0.5 h / remaining at 1.5 h: 90% plasma; for remaining at 0.25 h: 15 minute; for remaining at 0.5 h: 30 minute; for remaining at 1.5 h: 90 minute; for Residual activity: 0 minute
Procedure: (§2) The relation between the reaction period of time and the antibacterial activity (residual activity, %) when these compounds are incubated with the plasma and the liver homogenate of a male Sprague-Dowley rat is shown in Table 4. The residual antibacterial activity was measured by a thin-layer cup method according to Bacillus subtilis ATCC 6633.
A*Residual activity (%) when incubated with 90% plasma.

[22] = Residual antibacterial activity after incubation with 10% liver homogenate (Table 4); assay type: in vitro ADME, male Sprague-Dowley rat; conditions: 10% rat liver homogenate; for remaining at 0.25 h / remaining at 0.5 h / remaining at 1.5 h: 10% liver homogenate, read-out: Residual activity; for remaining at 0.25 h: 15 minute; for remaining at 0.5 h: 30 minute; for remaining at 1.5 h: 90 minute; for Residual activity: 0 minute
Procedure: as §2
B*Residual activity (%) when incubated with 10% liver homogenate.

[23] = (2) Proteus vulgaris 0X 19US, read-out: MIC
[24] = (5) Pseudomonas aeruginosa 99 (Gentamycin resistant), read-out: MIC
[25] = (16) Staphylococcus aureus 209P, read-out: MIC
[26] = (18) Staphylococcus Onuma, read-out: MIC
[27] = (10) Salmonella enteritidis, read-out: MIC
[28] = (17) Staphylococcus Shimanishi, read-out: MIC
[29] = (15) Micrococcus flavus ATCC 10240, read-out: MIC

Row | Compound | MIC [1] [µg/mL] | MIC [2, 23] [µg/mL] | MIC [3] [µg/mL] | MIC [4] [µg/mL] | MIC [5, 24] [µg/mL] | MIC [6] [µg/mL] | MIC [7] [µg/mL] | MIC ([8]; Klebsiella pneumoniae) [µg/mL] | MIC [9] [µg/mL] | MIC ([10]; ENTERITIDIS) [µg/mL] | MIC [11] [µg/mL] | MIC [12] [µg/mL] | MIC [13] [µg/mL] | MIC [14] [µg/mL] | MIC ([15]; Micrococcus flavus) [µg/mL] | MIC [16, 25] [µg/mL] | MIC [18, 26] [µg/mL] | solubility [19] [mg/mL] | remaining at 0.25 h [21] [%] | MIC [17, 28] [µg/mL] | further results
1 | O=C(O)CSc1nnc(SCC2=C(C(=O)O)N3C(=O)[C@@H](NC(=O)[C@H](NC(=O)c4cnccc4O)c4ccccc4)[C@H]3SC2)s1 [Example 4, 7-[D-α-(4-hydroxynicotinoylamido)-α-phenylacetamido]-3-(5-carboxymethylthio-1,3,4-thiadiazol-2-yl)thiomethyl-Δ^3-cephem-4-carboxylic acid] | < 0.09 | 0.19 (≈ 0.282 µM) | 0.39 (≈ 0.578 µM) | 12.5 (≈ 18.5 µM) | 6.25 (≈ 9.26 µM) | 6.25 (≈ 9.26 µM) | 3.13 (≈ 4.64 µM) | 3.13 (≈ 4.64 µM) | 1.56 (≈ 2.31 µM) | 0.39 (≈ 0.578 µM) | 0.78 (≈ 1.16 µM) | 3.13 (≈ 4.64 µM) | 0.19 (≈ 0.282 µM) | 0.19 (≈ 0.282 µM) | 3.13 (≈ 4.64 µM) | 0.78 (≈ 1.16 µM) | 6.25 (≈ 9.26 µM) | > 200 | 97 |  | MIC ([17]; Staphylococcus): 3.13 µg/mL (≈ 4.64 µM); Amount of unaltered test sample ([20]; β-lactamase dilution ×2): 0 µg/mL; Amount of unaltered test sample ([20]; β-lactamase dilution ×4): 29.6 µg/mL; Amount of unaltered test sample ([20]; β-lactamase dilution ×8): 61.0 µg/mL; Amount of unaltered test sample ([20]; β-lactamase dilution ×16): 100 µg/mL; Amount of unaltered test sample ([20]; β-lactamase dilution ×32): 100 µg/mL; Amount of unaltered test sample ([20]; β-lactamase dilution ×64): 100 µg/mL; Amount of unaltered test sample ([20]; β-lactamase dilution ×128): 100 µg/mL; Amount of unaltered test sample ([20]; β-lactamase dilution ×256): 100 µg/mL; Amount of unaltered test sample ([20]; β-lactamase dilution ×512): 100 µg/mL; Amount of unaltered test sample ([20]; β-lactamase dilution ×1024): 100 µg/mL; remaining at 0.5 h [21]: 93.9%; remaining at 1.5 h [21]: 103%; Residual activity [21]: 100%; remaining at 0.25 h [22]: 93.5%; remaining at 0.5 h [22]: 91.3%; remaining at 1.5 h [22]: 102%; Residual activity [22]: 100%
2 | O=C(O)Cc1nnc(SCC2=C(C(=O)O)N3C(=O)[C@@H](NC(=O)[C@H](NC(=O)c4cnccc4O)c4ccccc4)[C@H]3SC2)s1 [Example 25, 7-[D-α-(4-hydroxynicotinoylamido)-α-phenylacetamido]-3-(5-carboxymethyl-1,3,4-thiadiazol-2-yl)thiomethyl-Δ^3-cephem-4-carboxylic acid] | < 0.09 |  | 0.39 (≈ 0.607 µM) | 12.5 (≈ 19.4 µM) |  | 12.5 (≈ 19.4 µM) | 3.13 (≈ 4.87 µM) | 6.25 (≈ 9.72 µM) | 0.39 (≈ 0.607 µM) |  | 1.56 (≈ 2.43 µM) | 6.25 (≈ 9.72 µM) | 0.39 (≈ 0.607 µM) | 0.39 (≈ 0.607 µM) | 6.25 (≈ 9.72 µM) | 0.78 (≈ 1.21 µM) |  | > 200 |  | 3.13 (≈ 4.87 µM) | MIC ([2]; Proteus vulgaris): 1.56 µg/mL (≈ 2.43 µM); MIC ([5]; Pseudomonas aeruginosa): 6.25 µg/mL (≈ 9.72 µM); MIC [10, 27]: 0.19 µg/mL (≈ 0.296 µM); MIC ([18]; Staphylococcus): 6.25 µg/mL (≈ 9.72 µM)
3 | O=C(O)CCc1nnc(SCC2=C(C(=O)O)N3C(=O)[C@@H](NC(=O)[C@H](NC(=O)c4cnccc4O)c4ccccc4)[C@H]3SC2)s1 [Example 6, 7-[D-α-(4-hydroxynicotinoylamido)-α-phenylacetamido]-3-(5-carboxyethyl-1,3,4-thiadiazol-2-yl)thiomethyl-Δ^3-cephem-4-carboxylic acid] | < 0.09 | < 0.09 | 0.39 (≈ 0.594 µM) | 12.5 (≈ 19 µM) | 6.25 (≈ 9.52 µM) | 6.25 (≈ 9.52 µM) | 3.13 (≈ 4.77 µM) |  | 1.56 (≈ 2.38 µM) | 0.39 (≈ 0.594 µM) | 0.78 (≈ 1.19 µM) | 3.13 (≈ 4.77 µM) | 0.39 (≈ 0.594 µM) | 0.39 (≈ 0.594 µM) |  |  | 12.5 (≈ 19 µM) | > 200 | 92 | 6.25 (≈ 9.52 µM) | MIC ([8]; (8) Klebsiella pneumoniae ATCC 10031, read-out: MIC): 6.25 µg/mL (≈ 9.52 µM); MIC [15, 29]: 6.25 µg/mL (≈ 9.52 µM); MIC ([16]; Staphylococcus aureus, 209P): 1.56 µg/mL (≈ 2.38 µM); remaining at 0.5 h [21]: 102%; remaining at 1.5 h [21]: 102%; Residual activity [21]: 100%; remaining at 0.25 h [22]: 95.7%; remaining at 0.5 h [22]: 89.1%; remaining at 1.5 h [22]: 91.3%; Residual activity [22]: 100%
4 | O=C(O)CSc1nsc(SCC2=C(C(=O)O)N3C(=O)[C@@H](NC(=O)[C@H](NC(=O)c4cnccc4O)c4ccccc4)[C@H]3SC2)n1 [Example 13, 7-[D-α-(4-hydroxynicotinoylamido)-α-phenylacetamido]-3-(3-carboxymethylthio-1,2,4-thiadiazol-5yl)thiomethyl-Δ^3 cephem-4-carboxylic acid] | < 0.09 | 0.78 (≈ 1.16 µM) | 0.39 (≈ 0.578 µM) | 12.5 (≈ 18.5 µM) | 6.25 (≈ 9.26 µM) | 12.5 (≈ 18.5 µM) | 3.13 (≈ 4.64 µM) | 3.13 (≈ 4.64 µM) | 1.56 (≈ 2.31 µM) |  | 1.56 (≈ 2.31 µM) | 3.13 (≈ 4.64 µM) | 0.39 (≈ 0.578 µM) | 0.39 (≈ 0.578 µM) |  | 0.78 (≈ 1.16 µM) | 6.25 (≈ 9.26 µM) | > 200 |  | 6.25 (≈ 9.26 µM) | MIC [10, 27]: 0.39 µg/mL (≈ 0.578 µM); MIC [15, 29]: 6.25 µg/mL (≈ 9.26 µM)
